Assay [1] has as its system PLA2R autoantibody from one MN patient serum. Briefly: Peptide microarray binding detection (PEPperCHIP). As to conditions: MN patient serum at 1:100, goat anti-human IgG DyLight 680. From the text: To probe the importance of the amino acids within the PLA2R epitope in human autoantibody recognition, we utilized a printed peptide microarray. This peptide laser printing technology allows the synthesis of peptides (between 15 and 20 amino acids in length) directly onto glass slides followed by single substitution scans, which involves the stepwise substitution of all amino acid positions of a given epitope with all 20 main amino acids (Fig. 1A). We first synthesized a stepped series of truncated peptides across the originally discovered 31mer epitope (at both N- and C-terminus end) in order to identify the minimum sequence retaining high-affinity binding. […] We have previously shown that the epitope peptide is a disulphide-bonded structure, and its reactivity to human anti-PLA2R is sensitive to reduction ([8]). […] The substitution scan of these two regions was performed by exchange of the native amino acids with all 20 main amino acids. […] To further investigate this, a second array (platform 3) combined both parts of the N-terminal region and the cyclic C-terminal region. […]
Peptide microarrays were generated and performed by PEPperPRINT (Heidelberg, Germany) ([31], [32]). […] Peptide spot intensity quantification and peptide annotation were executed with PepSlide Analyzer. […]

The subject of assay [2] is PLA2R autoantibody (27 MN anti-PLA2R positive sera). Kind of assay: BLI direct interaction assay: immobilized peptides with anti-PLA2R positive sera. Format: binding, human. As to conditions: BLI (Octet Red); 27 MN sera at 1/200; dissociation rate from Hill-1 plot; n = 3. As for the experimental part: BLI experiments were conducted using an Octet Red (ForteBio). Octet CDL sensors (coated with a thin layer of carboxymethyl dextran) were activated by EDC/NHS, at the same concentration used for SPR, for 300 s with 1000 rpm agitation. […] Following immobilization, sensors were deactivated in 1 M ethanolamine for 300 s to prevent further immobilization of proteins to the samples sensors.
The association phase was measured for 450 s with 1000 rpm agitation. The dissociation phase for each sensor was subsequently measured by incubating the sensors into Hepes-sera buffer for 1200 s at 1000 rpm. Regeneration of the sensor was achieved by six successive washes in 10 mM NaOH for 15 s followed by 15 s in Milli-Q water. The immobilized sensor responses to anti-PLA2R IgG were calibrated against nonspecific binding of each immobilized sensor to Hepes-sera buffer.
The dissociation phase of each response was collected and plotted, and the dissociation rate was calculated (kd) as the 1/k value produced from a Hill-1 plot analysis. The average dissociation rate was calculated for each peptide sensor binding to the 27 MN patients’ sera. Dissociation rates with an R^2 value <0.9 or χ^2 value >3 were excluded from the data due to poor fitting.
(In general: BLI is a label-free optical method that tracks binding on a fibre tip over time.)

Assay [3] relates to human anti-PLA2R antibody (MN anti-PLA2R IgG) binding to PLA2R-NC3. Briefly: SPR inhibition assay: peptides block anti-PLA2R IgG binding to immobilized PLA2R-NC3. The settings on record: SPR (ProteOn), 1 µM peptide, anti-PLA2R IgG 1/100 in Hepes buffer pH 7.2, maximal response, n = 3.
Method: Real-time binding analysis was evaluated using an SPR instrument (ProteOn, BIO-RAD). ProteOn GLC sensor lanes were preactivated by injection of 18.75 mg/mL EDC (1-ethyl-3-(3-dimethylaminopropyl) carbodiimide) and 1.4 mg/mL NHS (N-hydroxysuccinimide, Sigma-Aldrich). Once activated, 20 μg/mL PLA2R-NC3 in 10 mM sodium acetate buffer (pH 4.5) (BIO-RAD) was injected onto sensor chip lanes for immobilization. Ethanolamine was injected to deactivate the sensors from further immobilization.
Subsequently, all AIPs were tested in triplicate using the same concentration. […] Hepes buffer was subsequently flown over, and the dissociation phase was measured for 400 s. The sensors were then regenerated with two successive injections (40 s) of 10 mM NaOH (sodium hydroxide). Each measured response of anti-PLA2R IgG with or without peptides to immobilized PLA2R-NC3 protein was calibrated against nonspecific binding of the sensor to Hepes buffer and Hepes buffer containing antibodies with or without peptides to a blank immobilized sensor. The maximal response was measured for all conditions of anti-PLA2R IgG and percentage inhibition of PLA2R autoantibody binding to PLA2R by AIPs calculated.
In a further assay the test system is PLA2R autoantibody. Kind of assay: Autoantibody binding to Endo180 protein (western blot and dot blot, Fig. S2). As to conditions: western blot non reduced and reduced; dot blot under native condition. Further details: species or system human. As for the experimental part: To determine the contribution of the conformation of the epitope sequence, the binding of the autoantibody was tested against Endo180 protein, another member of the mannose receptor family with high structural homology of the PLA2R CysR domain (SI Appendix, Fig. S2).
Fig. S2: PLA2R autoantibodies incapable of binding to Endo180 potentially due to lack of surface cavity in the P28mer epitope region.
A) Sequences from the P28mer region in the mannose receptor family proteins were subjected to consensus mapping by weblogo. Residues conserved in all mannose receptor proteins are indicated with *. B) Western blot analysis of PLA2R and Endo180 under non reduced and reduced conditions using anti-His and human PLA2R autoantibody. C) Dot blot analysis of PLA2R and […]
PLA2R autoantibody under native condition. D) Comparison of the PLA2R, DEC -205 (5ao5) and Endo-180 (7jpt) structures and their overlays. The RSMD values generated were 3.184 Å RMSD for analysis between PLA2R and Endo180, 3.558 Å RMSD for DEC-205 and Endo180, where Endo180 was used as reference.
(1 picture or pasted object on this page, not shown here)
In general terms: A western blot detects proteins with antibodies after separation by electrophoresis.

Bridges are numbered along the chain shown (N, C = ends). Where no end group is shown, it is not given here.

Regarding “CIQAGKSVLTLENCK (disulfide 1-14 (inferred)) [platform 2, microarray-printed cyclic region […] of P28mer, cyclized by disulphide]”, in assay [1], the “autoantibody binding to printed peptide (fluorescence intensity)” value is given as “no significant binding”.
With “KGIFVIQSESLKKC [platform 1, microarray-printed linear region […] of P28mer]”, in assay [1], the “autoantibody binding to printed peptide (fluorescence intensity)” value is “no significant binding”.
As to SVLTLENCK [AIP2], the “binding affinity of immobilized peptide to anti-PLA2R positive sera, relative to P28mer” value in assay [2] is on record as “lower affinity than the P28mer”.
For VIQSESLK [AIP1], in assay [3], the “percentage inhibition of PLA2R autoantibody binding to PLA2R” value is listed as about 40%. The “binding affinity of immobilized peptide to anti-PLA2R positive sera, relative to P28mer” value in assay [2] was “lower affinity than the P28mer”.

B1: Endo180: mannose receptor family protein with high structural homology to the PLA2R CysR domain (protein, UniProt Q9UBG0 31-1479, looked up)
C-type mannose receptor 2: GAPGDAALPEPNVFLIFSHGLQGCLEAQGGQVRVTPACNTSLPAQRWKWVSRNRLFNLGTMQCLGTGWPGTNTTASLGMYECDREALNLRWHCRTLGDQLSLLLGARTSNISKPGTLERGDQTRSGQWRIYGSEEDLCALPYHEVYTIQGNSHGKPCTIPFKYDNQWFHGCTSTGREDGHLWCATTQDYGKDERWGFCPIKSNDCETFWDKDQLTDSCYQFNFQSTLSWREAWASCEQQGADLLSITEIHEQTYINGLLTGYSSTLWIGLNDLDTSGGWQWSDNSPLKYLNWESDQPDNPSEENCGVIRTESSGGWQNRDCSIALPYVCKKKPNATAEPTPPDRWANVKVECEPSWQPFQGHCYRLQAEKRSWQESKKACLRGGGDLVSIHSMAELEFITKQIKQEVEELWIGLNDLKLQMNFEWSDGSLVSFTHWHPFEPNNFRDSLEDCVTIWGPEGRWNDSPCNQSLPSICKKAGQLSQGAAEEDHGCRKGWTWHSPSCYWLGEDQVTYSEARRLCTDHGSQLVTITNRFEQAFVSSLIYNWEGEYFWTALQDLNSTGSFFWLSGDEVMYTHWNRDQPGYSRGGCVALATGSAMGLWEVKNCTSFRARYICRQSLGTPVTPELPGPDPTPSLTGSCPQGWASDTKLRYCYKVFSSERLQDKKSWVQAQGACQELGAQLLSLASYEEEHFVANMLNKIFGESEPEIHEQHWFWIGLNRRDPRGGQSWRWSDGVGFSYHNFDRSRHDDDDIRGCAVLDLASLQWVAMQCDTQLDWICKIPRGTDVREPDDSPQGRREWLRFQEAEYKFFEHHSTWAQAQRICTWFQAELTSVHSQAELDFLSHNLQKFSRAQEQHWWIGLHTSESDGRFRWTDGSIINFISWAPGKPRPVGKDKKCVYMTASREDWGDQRCLTALPYICKRSNVTKETQPPDLPTTALGGCPSDWIQFLNKCFQVQGQEPQSRVKWSEAQFSCEQQEAQLVTITNPLEQAFITASLPNVTFDLWIGLHASQRDFQWVEQEPLMYANWAPGEPSGPSPAPSGNKPTSCAVVLHSPSAHFTGRWDDRSCTEETHGFICQKGTDPSLSPSPAALPPAPGTELSYLNGTFRLLQKPLRWHDALLLCESRNASLAYVPDPYTQAFLTQAARGLRTPLWIGLAGEEGSRRYSWVSEEPLNYVGWQDGEPQQPGGCTYVDVDGAWRTTSCDTKLQGAVCGVSSGPPPPRRISYHGSCPQGLADSAWIPFREHCYSFHMELLLGHKEARQRCQRAGGAVLSILDEMENVFVWEHLQSYEGQSRGAWLGMNFNPKGGTLVWQDNTAVNYSNWGPPGLGPSMLSHNSCYWIQSNSGLWRPGACTNITMGVVCKLPRAEQSSFSPSALPENPAALVVVLMAVLLLLALLTAALILYRRRQSIERGAFEGARYSRSSSSPTEATEKNILVSDMEMNEQQE
B1: the “interaction of the autoantibody with the protein” value in the assay with PLA2R autoantibody is recorded as “No interaction was detected”.
